Assay results published in US20130157954A1, “METHODS FOR TREATMENT OR PROPHYLAXIS OF KIDNEY OR LIVER DYSFUNCTION” (NPS PHARMACEUTICALS, INC., priority 2010, published 2013).

Experiment: Example 2: liver biomarkers (albumin, gamma glutamyl transferase, total bilirubin, ALT, AST, ALP) in short bowel syndrome patients, every four weeks for 24 weeks; also sorted by >10% change from baseline
Assay type: in vivo, Human
Procedure: To further confirm the results of Example 1, a further study was conducted involving more individuals and additional diagnostic biomarkers. Human patients with short bowel syndrome were divided into two groups: a control group (43 total individuals) to receive placebo, and an experimental group (42 total individuals) to receive teduglutide at 0.05 mg/kg/day throughout the study. Patients were treated by subcutaneous injection of placebo or the appropriate dose of teduglutide. Known biomarkers of liver function were monitored every four weeks, for 24 weeks. The liver biomarkers tested included albumin, gamma glutamyl transferase, total bilirubin, ALT and AST and ALP. Before administration of placebo or teduglutide, diagnostic biomarker levels were tested to establish a baseline for each individual.
To determine the effect of GLP-2 on the levels of the diagnostic biomarkers, the average level of each biomarker was measured for the placebo and teduglutide treated groups for each visit. Furthermore, the average change from baseline was calculated using the established baseline values. For FIGS. 17-28, p-values were calculated using the t-test.
P values are provided, which were calculated for each distribution of biomarker changes for each week using the chi-squared test.

[1] = Endpoint (last assessment after start of treatment), 0.05 mg/kg/d, m = 42
[2] = Endpoint (last assessment after the start of treatment), 0.05 mg/kg/d

## CC[C@H](C)[C@H](NC(=O)[C@H](Cc1ccccc1)NC(=O)[C@H](CC(=O)O)NC(=O)[C@H](CCCNC(=N)N)NC(=O)[C@H](C)NC(=O)[C@H](C)NC(=O)[C@H](CC(C)C)NC(=O)[C@H](CC(N)=O)NC(=O)[C@H](CC(=O)O)NC(=O)[C@H](CC(C)C)NC(=O)[C@@H](NC(=O)[C@@H](NC(=O)[C@H](CC(N)=O)NC(=O)[C@H](CCSC)NC(=O)[C@H](CCC(=O)O)NC(=O)[C@H](CC(=O)O)NC(=O)[C@H](CO)NC(=O)[C@H](Cc1ccccc1)NC(=O)[C@H](CO)NC(=O)CNC(=O)[C@H](CC(=O)O)NC(=O)CNC(=O)[C@@H](N)Cc1c[nH]cn1)[C@@H](C)O)[C@@H](C)CC)C(=O)N[C@@H](CC(N)=O)C(=O)N[C@@H](Cc1c[nH]c2ccccc12)C(=O)N[C@@H](CC(C)C)C(=O)N[C@H](C(=O)N[C@@H](CCC(N)=O)C(=O)N[C@H](C(=O)N[C@@H](CCCCN)C(=O)N[C@H](C(=O)N[C@H](C(=O)N[C@@H](CC(=O)O)C(=O)O)[C@@H](C)O)[C@@H](C)CC)[C@@H](C)O)[C@@H](C)CC [teduglutide]
0.05 mg/kg/day, Table 3, FIGS. 17-20 and 23-28
  level of diagnostic biomarkers elevated in liver dysfunction vs placebo cohort: lower level, on average
0.05 mg/kg/day, Table 4
  likelihood of >10% decrease in liver biomarkers vs placebo: more likely to experience a >10% decrease
  likelihood of >10% increase in liver biomarkers vs placebo: less likely to experience a >10% increase
0.05 mg/kg/day, as treatment progressed, FIGS. 21 and 22
  measured level of albumin relative to placebo cohort: became elevated
[1]
  ALT: subjects Within 10% of Baseline: 12 (28.6%) n (%)
  ALT: subjects with >10% decrease from Baseline: 25 (59.5%) n (%)
  ALT: subjects with >10% increase from Baseline: 5 (11.9%) n (%)
  AST: subjects Within 10% of Baseline: 11 (26.2%) n (%)
  AST: subjects with >10% decrease from Baseline: 25 (59.5%) n (%)
  AST: subjects with >10% increase from Baseline: 6 (14.3%) n (%)
  Albumin: subjects Within 10% of Baseline: 40 (95.2%) n (%)
  Albumin: subjects with >10% decrease from Baseline: 2 (4.8%) n (%)
  Albumin: subjects with >10% increase from Baseline: 0 n (%)
  Alkaline Phosphatase: subjects Within 10% of Baseline: 12 (28.6%) n (%)
  Alkaline Phosphatase: subjects with >10% decrease from Baseline: 24 (57.1%) n (%)
  Alkaline Phosphatase: subjects with >10% increase from Baseline: 6 (14.3%) n (%)
  Bilirubin: subjects Within 10% of Baseline: 8 (19.0%) n (%)
  Bilirubin: subjects with >10% decrease from Baseline: 27 (64.3%) n (%)
  Bilirubin: subjects with >10% increase from Baseline: 7 (16.7%) n (%)
[2]
  ALKALINE PHOSPHATASE Change from Baseline Median: −22 U/L
  ALT Change from Baseline, Max: 21 U/L
  ALT Change from Baseline, Median: −4 U/L
  ALT Change from Baseline, Min: −60 U/L
  ALT Observed Value, Max: 149 U/L
  ALT Observed Value, Mean: 31.0 U/L
  ALT Observed Value, Min: 7 U/L
  AST Change from Baseline, Max: 14 U/L
  AST Change from Baseline, Mean: −5.4 U/L
  AST Change from Baseline, Median: −3 U/L
  AST Change from Baseline, Min: −47 U/L
  AST Observed Value, Max: 77 U/L
  AST Observed Value, Mean: 27.0 U/L
  AST Observed Value, Median: 24 U/L
  AST Observed Value, Min: 11 U/L
  Albumin Change from Baseline, Max: 3 g/L
  Albumin Change from Baseline, Mean: -0.5 g/L
  Albumin Change from Baseline, Median: 0 g/L
  Albumin Change from Baseline, Min: -8 g/L
  Albumin Observed Value, Max: 48 g/L
  Albumin Observed Value, Median: 42 g/L
  Albumin Observed Value, Min: 33 g/L
  Alkaline Phosphatase Change from Baseline, Max: 33 U/L
  Alkaline Phosphatase Change from Baseline, Min: −122 U/L
  Alkaline Phosphatase Observed Value, Max: 328 U/L
  Alkaline Phosphatase Observed Value, Min: 49 U/L
  Bilirubin Change from Baseline, Max: 3.4 µmol/L
  Bilirubin Change from Baseline, Min: -26.1 µmol/L
  Bilirubin Observed Value, Max: 31.3 µmol/L
  Bilirubin Observed Value, Min: 2.5 µmol/L
  Gamma Glutamyl Transferase Change from Baseline, Max: 46 U/L
  Gamma Glutamyl Transferase Change from Baseline, Median: −6 U/L
  Gamma Glutamyl Transferase Change from Baseline, Min: −144 U/L
  Gamma Glutamyl Transferase Observed Value, Max: 228 U/L
  Gamma Glutamyl Transferase Observed Value, Median: 42 U/L
  Gamma Glutamyl Transferase Observed Value, Min: 7 U/L
Week 2, 0.05 mg/kg/d
  ALKALINE PHOSPHATASE Change from Baseline Median: −8 U/L
  ALT Change from Baseline, Max: 48 U/L
  ALT Change from Baseline, Mean: −8.9 U/L
  ALT Change from Baseline, Median: −5.5 U/L
  ALT Change from Baseline, Min: −58 U/L
  ALT Observed Value, Max: 142 U/L
  ALT Observed Value, Min: 9 U/L
  AST Change from Baseline, Max: 22 U/L
  AST Change from Baseline, Mean: −3.6 U/L
  AST Change from Baseline, Median: −3 U/L
  AST Change from Baseline, Min: −21 U/L
  AST Observed Value, Max: 78 U/L
  AST Observed Value, Mean: 29.0 U/L
  AST Observed Value, Min: 11 U/L
  Albumin Change from Baseline, Max: 3 g/L
  Albumin Change from Baseline, Mean: -0.9 g/L
  Albumin Change from Baseline, Median: -1 g/L
  Albumin Change from Baseline, Min: -5 g/L
  Albumin Observed Value, Max: 47 g/L
  Albumin Observed Value, Median: 42 g/L
  Albumin Observed Value, Min: 35 g/L
  Alkaline Phosphatase Change from Baseline, Max: 27 U/L
  Alkaline Phosphatase Change from Baseline, Min: −76 U/L
  Alkaline Phosphatase Observed Value, Max: 298 U/L
  Alkaline Phosphatase Observed Value, Min: 53 U/L
  Bilirubin Change from Baseline, Max: 8.6 µmol/L
  Bilirubin Change from Baseline, Min: -18.2 µmol/L
  Bilirubin Observed Value, Max: 57.4 µmol/L
  Bilirubin Observed Value, Min: 2.4 µmol/L
  Gamma Glutamyl Transferase Change from Baseline, Max: 117 U/L
  Gamma Glutamyl Transferase Change from Baseline, Mean: 7.4 U/L
  Gamma Glutamyl Transferase Change from Baseline, Median: 2.5 U/L
  Gamma Glutamyl Transferase Change from Baseline, Min: −48 U/L
  Gamma Glutamyl Transferase Observed Value, Max: 279 U/L
  Gamma Glutamyl Transferase Observed Value, Min: 11 U/L
Week 2, 0.05 mg/kg/d, m = 40
  ALT: subjects Within 10% of Baseline: 10 (25.0%) n (%)
  ALT: subjects with >10% decrease from Baseline: 23 (57.5%) n (%)
  ALT: subjects with >10% increase from Baseline: 7 (17.5%) n (%)
  AST: subjects Within 10% of Baseline: 15 (37.5%) n (%)
  AST: subjects with >10% decrease from Baseline: 20 (50.0%) n (%)
  AST: subjects with >10% increase from Baseline: 5 (12.5%) n (%)
  Albumin: subjects Within 10% of Baseline: 37 (92.5%) n (%)
  Albumin: subjects with >10% decrease from Baseline: 3 (7.5%) n (%)
  Albumin: subjects with >10% increase from Baseline: 0 n (%)
  Alkaline Phosphatase: subjects Within 10% of Baseline: 19 (47.5%) n (%)
  Alkaline Phosphatase: subjects with >10% decrease from Baseline: 15 (37.5%) n (%)
  Alkaline Phosphatase: subjects with >10% increase from Baseline: 6 (15.0%) n (%)
